The numbers were not newly measured in US20050260263A1, “Sustained release formulation for sparingly soluble main drugs” (Panion & BF Biotech Inc., priority 2004, published 2005), which cites them from elsewhere.

Each structure is given as a SMILES string. Like-named read-outs stand apart in the source and are kept apart here.

On to `CC[C@H]1OC(=O)[C@H](C)[C@@H](O[C@H]2C[C@@](C)(OC)[C@@H](O)[C@H](C)O2)[C@H](C)[C@@H](O[C@@H]2O[C@H](C)C[C@H](N(C)C)[C@H]2O)[C@](C)(O)C[C@@H](C)C(=O)[C@H](C)[C@@H](O)[C@]1(C)O` [Erythromycin], for which the Solubility entry (water) was “only slightly soluble”.

Turning to `CC[C@H]1OC(=O)[C@H](C)[C@@H](O[C@H]2C[C@@](C)(OC)[C@@H](O)[C@H](C)O2)[C@H](C)[C@@H](O[C@@H]2O[C@H](C)C[C@H](N(C)C)[C@H]2O)[C@](C)(OC)C[C@@H](C)C(=O)[C@H](C)[C@@H](O)[C@]1(C)O` [clarithromycin], the Solubility result is, setting by setting: (gastric fluid) “very soluble”; (region of the lower intestine (pH 6 to 8)) “poorly soluble”; (upper region of the small intestine (pH 5.0)) “fairly soluble”.
